Laboratory results reported in patent US6875761B2 (Eisai Co., Ltd., priority 1997, dated 2005).
Structures can show the parent of a compound that is named as a salt.

melting point	SMILES
160 to 162 °C	COc1ccc(-c2cc3ccccc3c(N(C)CCN(C)C)n2)cc1 (as salt: hydrochloride) [Example 319, 1-{N-[2-(2-dimethylamino)ethyl]-N-methylamino}-3-(4-methoxyphenyl)isoquinoline dihydrochloride]
135 to 136 °C	COc1ccc(-c2cc3ccccc3c(NCCN3CCOCC3)n2)cc1 (as salt: hydrochloride) [Example 323, 1-[2-(4-morpholinyl)ethyl]amino-3-(4-methoxyphenyl)isoquinoline dihydrochloride]
223 to 238 °C	COc1ccc(-c2cc3ccccc3c(N3CCC(N4CCCCC4)CC3)n2)cc1 (as salt: hydrochloride) [Example 325, 1-[4-(piperidin-1-yl)piperidine-1-yl]-3-(4-methoxyphenyl)isoquinoline dihydrohcloride]
141 to 143 °C	CCN1CCN(c2nc(-c3ccc4c(c3)OCCO4)cc3ccccc23)CC1 (as salt: hydrochloride) [Example 332, 1-(4-ethylpiperazin-1-yl)-3-(3,4-ethylenedioxyphenyl)isoquinoline dihydrochloride]
172 to 173 °C (dec.)	CCN1CCN(c2nc(-c3cc(OC)ccn3)cc3ccccc23)CC1 (as salt: hydrochloride) [Example 335, 1-(4-ethylpiperazin-1-yl)-3-(4-methoxypyridin-2-yl)isoquinoline dihydrochloride]
133 to 135 °C (dec.)	CCN1CCN(c2nc(-c3ccc(OCC(O)CO)cc3)cc3ccccc23)CC1 (stereo not drawn) (as salt: hydrochloride) [Example 337, 1-(4-ethylpiperazin-1-yl)-3-[4-(2,3-dihydroxypropoxy)phenyl]isoquinoline dihydrochloride]
113 to 115 °C	CCN1CCN(c2nc(-c3ccc(OC(F)(F)F)cc3)cc3ccccc23)CC1 (as salt: hydrochloride) [Example 339, 1-(4-ethylpiperazin-1-yl)-3-(4-trifluoromethoxyphenyl)isoquinoline dihydrochloride]
128 to 129 °C	CCN1CCN(c2nc(-c3ccc(OCCO)c(OC)c3)cc3ccccc23)CC1 (as salt: hydrochloride) [Example 340, 1-(4-ethylpiperazin-1-yl)-3-[4-(2-hydroxyethoxy)-3-methoxyphenyl]isoquinoline dihydrochloride]
215 to 218 °C (dec.)	CCN1CCN(c2nc(-c3ccc(SC)cc3)cc3ccccc23)CC1 (as salt: hydrochloride) [Example 341, 1-(4-ethylpiperazin-1-yl)-3-(4-methylthiophenyl)isoquinoline dihdyrochloride]
216.5 to 218 °C (dec.)	CCN1CCN(c2nc(-c3ccc(S(C)(=O)=O)cc3)cc3ccccc23)CC1 (as salt: hydrochloride) [Example 342, 1-(4-ethylpiperazin-1-yl)-3-(4-methylsulfonylphenyl)isoquinoline dihydrochloride]
216.5 to 218 °C (dec.)	CCN1CCN(c2nc(-c3ccc(OCC(O)COC)cc3)cc3ccccc23)CC1 (stereo not drawn) (as salt: hydrochloride) [Example 343, 1-(4-ethylpiperazin-1-yl)-3-[4-(2-hydroxy-3-methoxypropoxy)phenyl]isoquinoline dihydrochloride]
154 to 155 °C	CCN1CCN(c2nc(-c3ccc(C(=O)NCCO)cc3)cc3ccccc23)CC1 (as salt: hydrochloride) [Example 346, 1-(4-ethylpiperazin-1-yl)-3-{4-(N-(2-hydroxyethyl)carbamoyl]phenyl}isoquinoline dihydrochloride]
136 to 138.5 °C	CCN1CCN(c2nc(-c3ccc(S(=O)(=O)NCCO)cc3)cc3ccccc23)CC1 (as salt: hydrochloride) [Example 347, 1-(4-ethylpiperazin-1-yl)-3-{4-[N-(2-hydroxyethyl)sulfamoyl]phenyl}isoquinoline dihydrochloride]
135.5 to 136 °C	CCN1CCN(c2nc(-c3ccc(C(C)O)cc3)cc3ccccc23)CC1 (stereo not drawn) (as salt: hydrochloride) [Example 348, 1-(4-ethylpiperazin-1-yl)-3-[4-(1-hydroxyethyl)phenyl]isoquinoline dihydrochloride]
134 to 136 °C	CCN1CCN(c2nc(-c3ccc(CCO)cc3)cc3ccccc23)CC1 (as salt: hydrochloride) [Example 351, 1-(4-ethylpiperazin-1-yl)-3-[4-(2-hydroxyethyl)phenyl]isoquinoline dihydrochloride]
213 to 215 °C (dec.)	CCN1CCN(c2nc(-c3ccc(S(=O)(=O)CCCO)cc3)cc3ccccc23)CC1 (as salt: hydrochloride) [Example 352, 1-(4-ethylpiperazin-1-yl)-3-[4-(3-hydroxypropyl)sulfonylphenyl]isoquinoline dihydrochloride]
226.5 to 227.5 °C (dec.)	CCCNS(=O)(=O)c1ccc(-c2cc3ccccc3c(N3CCN(CC)CC3)n2)cc1 (as salt: hydrochloride) [Example 353, 1-(4-ethylpiperazin-1-yl)-3-[4-(N-propylsulfamoyl)phenyl]isoquinoline dihydrochloride]
222 to 224 °C (dec.)	CCN1CCN(c2nc(-c3ccc(S(=O)(=O)NCCOC)cc3)cc3ccccc23)CC1 (as salt: hydrochloride) [Example 354, 1-(4-ethylpiperazin-1-yl)-3-{4-[N-(2-methoxyethyl)sulfamoyl]phenyl}isoquinoline dihydrochloride]
224 to 225 °C (dec.)	CCN1CCN(c2nc(-c3ccc(S(=O)(=O)CCCF)cc3)cc3ccccc23)CC1 (as salt: hydrochloride) [Example 355, 1-(4-ethylpiperazin-1-yl)-3-[4-(3-fluoropropyl)sulfonylphenyl]isoquinoline dihydrochloride]
238.5 to 240 °C (dec.)	CCN1CCN(c2nc(-c3ccc(S(=O)(=O)N4CCCC4)cc3)cc3ccccc23)CC1 (as salt: hydrochloride) [Example 356, 1-(4-ethylpiperazin-1-yl)-3-[4-(pyrrolidin-1-yl)sulfonylphenyl]isoquinoline dihydrochloride]
147 to 149 °C	CCNS(=O)(=O)c1ccc(-c2cc3ccccc3c(N3CCN(CC)CC3)n2)cc1 (as salt: hydrochloride) [Example 357, 1-(4-ethylpiperazin-1-yl)-3-[4-(N-ethylsulfamoyl)phenyl]isoquinoline dihydrochloride]
199.5 to 200.5 °C (dec.)	CCCN(C)S(=O)(=O)c1ccc(-c2cc3ccccc3c(N3CCN(CC)CC3)n2)cc1 (as salt: hydrochloride) [Example 358, 1-(4-ethylpiperazin-1-yl)-3-[4-(N-methyl-N-propylsulfamoyl)phenyl]isoquinoline dihydrochloride]
210 to 212 °C (dec.)	CCN1CCN(c2nc(-c3ccc(S(=O)(=O)N(CC)CC)cc3)cc3ccccc23)CC1 (as salt: hydrochloride) [Example 359, 1-(4-ethylpiperazin-1-yl)-3-[4-(N,N-diethylsulfamoyl)phenyl]isoquinoline dihydrochloride]
155 to 156 °C	CCC(C)NS(=O)(=O)c1ccc(-c2cc3ccccc3c(N3CCN(CC)CC3)n2)cc1 (stereo not drawn) (as salt: hydrochloride) [Example 360, 1-(4-ethylpiperazin-1-yl)-3-{4-[N-(1-methylpropyl)sulfamoyl]phenyl}isoquinoline dihydrochloride]
170 to 172 °C	CCN1CCN(c2nc(-c3ccc(S(=O)(=O)NC)cc3)cc3ccccc23)CC1 (as salt: hydrochloride) [Example 361, 1-(4-ethylpiperazin-1-yl)-3-[4-(N-methylsulfamoyl)phenyl]isoquinoline dihydrochloride]
155 to 156 °C	CCN1CCN(c2nc(-c3ccc(S(=O)(=O)N(C)C)cc3)cc3ccccc23)CC1 (as salt: hydrochloride) [Example 362, 1-(4-ethylpiperazin-1-yl)-3-[4-(N,N-dimethylsulfamoyl)phenyl]isoquinoline dihydrochloride]
158 to 159.5 °C	CCN1CCN(c2nc(-c3ccc(S(=O)(=O)NC4CC4)cc3)cc3ccccc23)CC1 (as salt: hydrochloride) [Example 363, 1-(4-ethylpiperazin-1-yl)-3-[4-(N-cyclopropylsulfamoyl)phenyl]isoquinoline dihydrochloride]
160 to 160.5 °C	CCNC(=O)c1ccc(-c2cc3ccccc3c(N3CCN(CC)CC3)n2)cc1 (as salt: hydrochloride) [Example 364, 1-(4-ethylpiperazin-1-yl)-3-[4-(N-ethylcarbamoyl)phenyl]isoquinoline dihydrochloride]
161.5 to 163 °C	CCN1CCN(c2nc(-c3ccc(C(=O)NC)cc3)cc3ccccc23)CC1 (as salt: hydrochloride) [Example 365, 1-(4-ethylpiperazin-1-yl)-3-[4-(N-methylcarbamoyl)phenyl]isoquinoline dihydrochloride]
150 to 151.5 °C	CCN1CCN(c2nc(-c3ccc(S(=O)(=O)CC)cc3)cc3ccccc23)CC1 (as salt: hydrochloride) [Example 366, 1-(4-ethylpiperazin-1-yl)-3-[4-(ethylsulfonyl)phenyl]isoquinoline dihydrochloride]

SMILES	melting point
CCN1CCN(c2nc(-c3ccc(CCCOC)cc3)cc3ccccc23)CC1 (as salt: hydrochloride) [Example 333, 1-(4-ethylpiperazin-1-yl)-3-[4-(3-(methoxypropyl)phenyl]isoquinolinedihydrochloride]	191 to 192 °C (dec.)
CCCS(=O)(=O)c1ccc(-c2cc3ccccc3c(N3CCN(CC)CC3)n2)cc1 (as salt: hydrochloride) [Example 349, 1-(4-ethylpiperazin-1-yl)-3-[4-propylsulfonyl)phenyl]isoquinoline dihydrochloride]	240.5 to 242 °C (dec.)
CCN1CCN(c2nc(-c3ccc(S(=O)(=O)CCCOC)cc3)cc3ccccc23)CC1 (as salt: hydrochloride) [Example 350, 1-(4-ethylpiperazin-1-yl)-3-{4-[(3-methoxypropyl)sulfonyl]phenyl}isoquinoline]	177.5 to 180 °C
